Patent EP4635966A1, “SYNTHETIC VARIANTS OF THE GANGLIOSIDE NGCGM3 AND USE THEREOF IN CANCER TREATMENT” (Centro de Inmunologia Molecular, priority 2022, dated 2024)

Tests used:
[1] = tested on: iNKT cells; assay: In vivo iNKT cell activation: serum IFNγ by ELISA after i.p. injection; design: species or system C57BL/6 mice; conditions: 200 µg i.p.; blood 16 hours after administration; Figure 7
Protocol: C57BL/6 mice were injected intraperitoneally with 200 µg of natural NGcGM3 ganglioside, NGcGM3 d18:1-C24:1, NGcGM3 d18:1-C 18:0 and 2 µg of αGalCer or vehicle (5.6 % sucrose, 0.75 % L-histidine and 0.5 % Tween-20) and blood was drawn 16 hours after the administration. Serum IFNγ levels were assessed by ELISA as an indirect measure of iNKT cell activation (Mouse IFNy ELISA Ready-SET-Go!, eBioscience).

[2] = tested on: P3X63 myeloma cells; assay: Subcutaneous P3X63 myeloma tumor growth (tumor volume); type: in vivo, BALB/c mice; conditions: day 5; for TV < 36 mm^3 (percentage distribution of tumor volume of the animals) / TV > 36 mm^3 (percentage distribution of tumor volume of the animals): Example 5, Table 1, i.p. on days 1, 5 and 9 (200 µg NGcGM3 d18:1-C24:1); for TV < 36 mm^3 (percentage distribution of tumor volume of the animals) / TV > 36 mm^3 (percentage distribution of tumor volume of the animals) / TV < 36 mm^3 (percentage distribution of tumor volume of animals) / TV > 36 mm^3 (percentage distribution of tumor volume of animals): 1x10^6 P3X63 s.c.; for growth of subcutaneous tumors: Example 5, p<0.001 for NGcGM3 d18:1-C24:1, p<0.05 for αGalCer vs placebo; for TV < 36 mm^3 (percentage distribution of tumor volume of animals) / TV > 36 mm^3 (percentage distribution of tumor volume of animals): Example 10, Table 2, treatment on days 1, 5 and 9; for antitumor effect (inhibition of tumor growth vs control group): Example 10, p=0.0031 NGcGM3 d18:1-C24:1, p=0.0004 GlycoVax 24:1
Protocol: 1x10^6 P3X63 cells were implanted subcutaneously into syngeneic BALB/c mice. Animals were randomized, divided into groups of 6-8 and received intraperitoneal treatments with 200 µg NGcGM3 d18:1-C24:1 ganglioside, αGalCer or vehicle (5.6% sucrose solution, 0.75% L-histidine and 0.5% Tween20 0.5%) on days 1, 5 and 9. Tumor diameters were measured with a caliper and tumor volume (TV) was calculated according to the formula: TV (mm^3) = π/6 × major diameter × (minor diameter)^2. […] The individual tumor volume values of the animals in each group and the mean and standard deviation of the mean in each case on day 5 of the experiment are shown. […] Table 1. Percentage distribution of tumor volume of the animals in each group.
1x10^6 P3X63 myeloma cells were implanted subcutaneously into syngeneic BALB/c mice. Animals were randomized, divided into groups of 6-8 and received treatments with vehicle solution (5.6% sucrose, 0.75% L-histidine and 0.5% Tween-20), αGalCer, NGcGM3 d18:1-C24:1 or nanoparticles of OMPC and NGcGM3 d18:1-C24:1 (GlycoVax 24:1) on days 1, 5 and 9.
Subcutaneous tumor diameters were measured every 2-3 days with a caliper and TV was calculated according to the formula: TV (mm^3) = π/6 × major diameter × (minor diameter)^2. […]

[3] = tested on: EL-4 thymoma cells; assay: EL-4 hepatic metastatic spread model (liver weight); type: in vivo, C57BL/6 mice
Protocol: Syngeneic C57BL/6 mice were inoculated intravenously through the tail vein with 2x10^5 EL-4 thymoma cells. Mice were randomized and distributed into groups of 7-9 animals. Experimental groups received intraperitoneal treatments with 200µg of synthetic and natural variants of NGcGM3 or vehicle (5.6% sucrose solution, 0.75% L-histidine and 0.5% Tween20) on days 1, 5 and 9. Animals were sacrificed 12-13 days after tumor inoculation, livers were removed and weighed to determine the level of hepatic metastatic spread. The liver weight of healthy animals of the same age and batch was used as a control.
Syngeneic C57BL/6 mice were inoculated intravenously through the tail vein with 2x10^5 EL-4 thymoma cells; mice were randomized and distributed into groups of 7-9 animals. Experimental groups received intraperitoneal treatments with 10-30 µg of nanoparticles of NGcGM3 d18:1-C24:1, NGcGM3 d18:1-C18:0 and natural NGcGM3 with OMPC of N. meningitidis on days 1, 5 and 9 or Tris/HCl solution (Placebo). Animals were sacrificed 12-13 days after tumor inoculation. To determine the level of liver metastatic spread, their livers were removed and weighed.
Syngeneic C57BL/6 mice were inoculated intravenously through the tail vein with 2x10^5 EL-4 thymoma cells; mice were randomized and distributed into groups of 7-9 animals. On the day following tumor inoculation, 6x10^5 bmDC, previously cultured for 16 hours with vehicle (DMSO 0.1%), NGcGM3 d18:1-C24:1 ganglioside (10 µg/ml) or NGcGM3 extracted from natural source (10 µg/ml) were administered in a single dose, intravenously. Cells were extensively washed with serum-free RPMI-1640 medium to remove excess of lipids before transfer. Animals were sacrificed 12-13 days after tumor inoculation, livers were collected and the level of hepatic metastatic spread was determined by weigh. Livers from healthy mice of the same age and batch were used as a reference. […] Clearly, the transfer of bmDC pulsed with NGcGM3 d18:1-C24:1, induce a significant reduction of EL-4 liver metastasis, compared to the placebo group, in which empty dendritic cells were transferred. […], the transfer of bmDC incubated with ganglioside extracted from a natural source was ineffective. (equal letters p>0.05, different letters p<0.05, ANOVA and Tukey tests). […]
To maintain the depletion of the populations of interest throughout the duration of the experiment, equal doses of depleting antibodies were administered on days 4 and 11 after tumor inoculation. Animals were sacrificed 12-13 days after tumor inoculation, livers were removed and the level of hepatic metastatic spread was determined by weigh. […]

[4] = tested on: EL-4 thymoma cells; assay: Survival of EL-4 tumor-bearing mice; type: in vivo, C57BL/6 mice; conditions: 200 µg i.p. on days 1, 5 and 9; p=0.0005 vs placebo
Protocol: Syngeneic C57BL/6 mice were inoculated intravenously through the tail vein with 2x10^5 EL-4 thymoma cells (ATCC TIB-39); mice were randomized and distributed into groups of 7-9 animals. Experimental groups received intraperitoneal treatments with 200 µg of ganglioside variants NGcGM3 d18:1-C24:1 and NGcGM3 from natural source or vehicle (5.6% sucrose solution, 0.75% L-histidine and 0.5% Tween20) on days 1, 5 and 9. The animals were monitored and sacrificed if they presented any sign or symptom that affected their ability to ingest food and water or compromised their general state of health, according to veterinary criteria.
Syngeneic C57BL/6 mice were inoculated intravenously through the tail vein with 2x10^5 EL-4 thymoma cells; mice were randomized and distributed into groups of 7-9 animals. On the day following tumor inoculation, 6x10^5 bmDC previously cultured for 16 hours with vehicle (DMSO 0.1%), NGcGM3 d18:1-C24:1 ganglioside (10 µg/ml) or the ganglioside extracted from a natural source (10 µg/ml) were administered in a single dose, intravenously. Cells were washed extensively with serum-free RPMI-1640 medium to remove excess of lipids before transfer. Mice were monitored for signs or symptoms that affected their ability to ingest food and water or compromised their general health status, according to veterinary criteria.

[5] = tested on: FF13 mouse iNKT-cell hybridoma; assay: In vitro iNKT cell activation: bmDC co-cultured with FF13 hybridoma, IL-2 by ELISA; type: cell-based; conditions: for activation of iNKT cell hybridoma (IL-2 secretion): Example 6
Protocol: The FF13 mouse iNKT-cell hybridoma previously described by Schumann J. (Schumann J. Eur J Immunol. 2007, 37:1431-41) was provided by Dr. Lucia Mori (University Hospital Basel, Switzerland) and was cultured in RPMI-1640 medium with GlutaMAX-I and 25 mM HEPES supplemented with 10 % heat-inactivated fetal bovine serum (FBS), 100 U/ml penicillin, 100 µg/ml streptomycin and 55 µM 2-mercaptoethanol.
Mature bone marrow precursor-derived dendritic cells (bmDC) were used as APCs for in vitro iNKT cell activation assays and in vivo adoptive transfer experiments. The bmDCs were obtained according to the previously described protocol of differentiation from bone marrow progenitors in the presence of granulocyte/macrophage colony stimulating factor (GM-CSF) (Inaba K. J ExpMed.1992, 176:1693-1702) with some modifications. Briefly, bone marrow progenitors were isolated from femurs and tibias of C57BL/6 mice and cultured in complete RPMI-1640 medium (RPMI-1640 with GlutaMAX-I, 10% FBS, 100 U/mL penicillin, 100 µg/mL streptomycin and 55 µM 2-mercaptoethanol) supplemented with 20 ng/mL GM-CSF (R&D Systems). The culture was fed with fresh medium on day 3 and maturation of bmDCs was induced with 1 µg/ml LPS. On day 7, cells were harvested and used for iNKT cell activation assays or adoptive transfer.
5x10^4 bmDC were grown in RPMI-1640 medium with 10% FBS in the presence of αGalCer at a concentration of 100 ng/ml and concentrations of 0.1, 1 and 10 µg/ml of natural NGcGM3 and the synthetic variants NGcGM3 d18:1-C24:1, NGcGM3 d18:1-C24:0, NGcGM3 d18:1-C18:0, NGcGM3 d18:1-C18:1 and NGcGM3 d18:1-C18:2 or vehicle (0.1 % DMSO) for 16 -24 hours. Then, 10^5 FF13 hybridoma cells were added and co-cultured with the bmDCs for 24 hours. The culture supernatants were collected and evaluated for IL-2 content by ELISA. […] Differences were observed between the NGcGM3 variants in terms of their antigenicity to iNKT cells based on the length and structure of the fatty acid in the ceramide.
5x10^4 bmDC were cultured in RPMI-1640 medium with 10% FBS in the presence of 10 µg/ml and 1 µg/ml of NGcGM3 d18:1-C24:1 ganglioside, GM3 d18:1-C24:1 or vehicle (0.1% DMSO) for 16-24 hours. Next, 10^5 FF13 hybridoma cells were added and co-cultured with the bmDCs for 24 hours. The culture supernatants were collected and IL-2 content quantified by ELISA. From Figure 8, the synthetic ganglioside variants NGcGM3 and GM3, with identical ceramide structure, have differences in their ability to stimulate iNKT cells.
5x10^4 bmDC were cultured in RPMI-1640 medium with 10% FBS in the presence of 100 ng/ml, 1 µg/ml or 10 µg/ml concentrations of nanoparticles, αGalCer or vehicle (0.1% DMSO) for 16 -24 hours. […] The culture supernatants were collected and IL-2 content quantified by ELISA. […]

CCCCCCCCCCCCCC=CC(O)C(COC1OC(CO)C(OC2OC(CO)C(O)C(OC3(C(=O)O)CC(O)C(NC(=O)CO)C(C(O)C(O)CO)O3)C2O)C(O)C1O)NC(=O)CCCCCCCCCCCCCCCCC (stereo not shown) [NGcGM3 d18:1-C18:0, reference compound]
serum IFNγ levels (in vivo activation of iNKT cells) [1]: inactive

CCCCCCCCC=CCCCCCCCCCCCCCC(=O)NC(COC1OC(CO)C(OC2OC(CO)C(O)C(OC3(C(=O)O)CC(O)C(NC(=O)CO)C(C(O)C(O)CO)O3)C2O)C(O)C1O)C(O)C=CCCCCCCCCCCCCC [NGcGM3 d18:1-C24:1, O-[3,5-didesoxy-5-hydroxyacetamido-D-glycero-α-D-galacto-2-nonupyranosyl-(2→3)-O-(β-D-galactopyranosyl)-(1→4)-β-D-glucopyranosyl-(1→1)-(2R,3S,4E)-2-tetracos-15-enamido-4-octadecene-1,3-diol]
TV < 36 mm^3 (percentage distribution of tumor volume of the animals) [2]: 50% | TV > 36 mm^3 (percentage distribution of tumor volume of the animals) [2]: 50% | TV < 36 mm^3 (percentage distribution of tumor volume of the animals) ([2]; listed as NGcGM3 24:1): 50% | growth of subcutaneous tumors [2]: significantly inhibited the growth of subcutaneous tumors | TV < 36 mm^3 (percentage distribution of tumor volume of animals) [2]: 50% | TV > 36 mm^3 (percentage distribution of tumor volume of animals) [2]: 50% | TV < 36 mm^3 (percentage distribution of tumor volume of animals) ([2]; listed as NGcGM3 24:1): 50% | antitumor effect (inhibition of tumor growth vs control group) [2]: significant inhibition of tumor growth | antimetastatic effect (liver weight, hepatic metastatic spread) ([3]; 2x10^5 EL-4 i.v., 200 µg i.p. on days 1, 5 and 9, livers weighed 12-13 days after inoculation, Figure 2): statistically significant antimetastatic effect | anti-metastatic effect (liver weight), NK and NKT cell populations not affected ([3]; Example 18, 200 µg i.p. on days 1, 5 and 9 + PBS): is present | anti-metastatic effect (liver weight) after depletion of NK and NKT cells ([3]; Example 18, 200 µg i.p. on days 1, 5 and 9 + anti-NK1.1 Mab, Figure 18a): abolishes the aforementioned anti-tumor effect | anti-metastatic effect (liver weight) after depletion of NK cells only ([3]; Example 18, 200 µg i.p. on days 1, 5 and 9 + anti-asialoGM1 antibody, Figure 18b): the antitumor effect is maintained | survival of EL-4 tumor-bearing animals [4]: significantly increased the survival | serum IFNγ levels (in vivo activation of iNKT cells) [1]: higher than in the rest of the experimental groups | activation of iNKT cell hybridoma (IL-2 secretion) ([5]; 100 ng/ml, same concentration as αGalCer): able to activate iNKT cells | activation of iNKT cell hybridoma (IL-2 secretion) ([5]; 0.1, 1 and 10 µg/ml on bmDC 16-24 h, co-culture 24 h, Figure 6): potent activation of FF13 hybridoma cells | activation of iNKT cell hybridoma (IL-2 secretion) ([5]; highest concentration tested, 10 µg/ml, αGalCer reference at 100 ng/ml): surpass the effect of αGalCer | iNKT cell activation (IL-2 secretion) compared with GM3 d18:1-C24:1 ([5]; Example 8, 10 µg/ml and 1 µg/ml, Figure 8): more potent effect on iNKT cell activation than the GM3 variant

CCCCCCCCCCCCCCCCCCCCCCCCCC(=O)N[C@@H](CO[C@H]1O[C@H](CO)[C@H](O)[C@H](O)[C@H]1O)[C@H](O)[C@H](O)CCCCCCCCCCCCCC [αGalCer, α-galactosylceramide, reference compound]
TV < 36 mm^3 (percentage distribution of tumor volume of the animals) [2]: 25% | TV > 36 mm^3 (percentage distribution of tumor volume of the animals) [2]: 75% | growth of subcutaneous tumors [2]: significantly inhibited the growth of subcutaneous tumors | TV < 36 mm^3 (percentage distribution of tumor volume of animals) [2]: 25% | TV > 36 mm^3 (percentage distribution of tumor volume of animals) [2]: 75% | antitumor effect (inhibition of tumor growth vs control group) [2]: did not show a statistically significant antitumor effect
